Test results reported in patent publication US20100331338A1, “Glucokinase Activators” (Merck Patent GMBH, priority 2008, published 2010).

Biological target: T1, hGK (Homo sapiens, UniProt P35557)
T1 sequence (P35557 1-465): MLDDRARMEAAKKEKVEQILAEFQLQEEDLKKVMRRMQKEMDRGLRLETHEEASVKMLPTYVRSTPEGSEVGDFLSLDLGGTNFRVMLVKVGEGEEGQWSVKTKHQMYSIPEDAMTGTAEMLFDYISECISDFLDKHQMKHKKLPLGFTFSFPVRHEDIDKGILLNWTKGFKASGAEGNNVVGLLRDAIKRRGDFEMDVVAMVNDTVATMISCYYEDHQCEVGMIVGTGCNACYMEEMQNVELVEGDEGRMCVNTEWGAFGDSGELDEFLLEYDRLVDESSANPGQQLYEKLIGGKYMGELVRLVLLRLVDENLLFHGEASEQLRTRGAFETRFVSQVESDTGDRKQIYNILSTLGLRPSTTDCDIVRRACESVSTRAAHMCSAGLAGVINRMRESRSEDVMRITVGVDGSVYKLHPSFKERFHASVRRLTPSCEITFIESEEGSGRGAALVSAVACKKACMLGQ
Assay: Glucokinase Activation Screening Assay (coupled enzyme assay with PK/LDH)
Assay type: biochemical
Conditions: 2 mM glucose; for hGK fold activation at 30 μM: fold activation at 30 μM compound
Protocol: Glucokinase Activation Screening Assay
GK activity (human or rat enzyme) is measured by a coupled enzyme assay using pyruvate kinase (PK) and lactate dehydrogenase (LDH) as coupling enzymes. GK activity is calculated from the decline in NADH monitored photometrically with a microtiter plate (MTP) reader at 340 nm.
For screening purposes, the GK assay is routinely run in a 384-MTP format, in a total volume of 33 μl/well. 10 μl of the ATP-regeneration solution (in HEPES-buffer*, pH 7.0, 6.73 U/ml pyruvate kinase, 6.8 U/ml lactate dehydrogenase) and 10 μl of the glucokinase-/glucose solution (15 μg/ml, 6.6 mM glucose in HEPES-buffer*, pH 7.0; the concentration of the glucose stock-solution was 660 mM in Millipore H2O) were mixed together with […] of a 10% DMSO solution (in HEPES-buffer*, pH 7.0) containing 3.3-fold the amounts of the compounds to achieve final compound concentrations in the range between 1 nM to 30 μM (sometimes 300 μM) in the assay solution (s. below). The solutions were mixed for 5 sec, and after a centrifugation at 243×g for 5 min, the solutions were preincubated for 25 min at room temperature.
The reaction was started by the addition of 10 μl of the NADH-/ATP-solution (4.29 mM NADH, 4.95 mM ATP, in HEPES-buffer*). The MTP was shaken for 5 sec., and then, the absorbance at 340 nm was monitored continuously in a MTP-reader (TECAN Spectro fluor plus) for the next 27 min (with a MTP-cycling time of 199 sec.). The final concentrations of the various components were as follows: 49.5 mM Hepes, pH 7.0, 1.49 mM PEP,1,3 mM NADH, 49.5 mM KCl, 4.96 mM MgCl2, 1.5 mM Mg-ATP, 1.98 mM DTT, 2.04 U/ml pyruvate kinase, 2.06 U/ml lactate-dehydrogenase, 0.91% DMSO, 0.15 μg/well glucokinase, and test compounds in the range between 1 nM and 300 μM.
The change in the optical density (ΔOD340 nm) in the presence of the compound was expressed relative to the ΔOD340 nm, ctrl of the control incubation (in the presence of 2 mM glucose and 0.91% DMSO), taking into account the optical density of the blank sample (incubation in the absence of 2 mM glucose). For the determination of the half maximal effective concentration (EC50), the %-Ctrl-values were plotted in a semi-logarithmic graph against the conc. of the compound of interest. The data points were fitted to a sigmoid curve function (f(x)=((%-Ctrlmax%-Ctrlmin)/(1−(EC50/x**^n(Hill)))+%-Ctrlmin)) by a non-linear regression analysis.
* Hepes-buffer (50 mM Hepes, pH 7.0, 5 mM MgCl2, 50 mM KCl, 1.5 mM PEP, 0.1% BSA). DTT was added to the Hepes-buffer from a 200× stock solution (in Millipore H2O) freshly each day. The final concentration of DTT in the Hepes-buffer is 2 mM.

SMILES | hGK fold activation at 30 μM | EC50 [µM]
O=C(Nc1nccs1)c1ccsc1 [Example 2, Thiophene-3-carboxylic acid thiazol-2-ylamide] | 1.3 | 
O=C(Nc1nccs1)c1cccs1 [Example 3, Thiophene-2-carboxylic acid thiazol-2-ylamide] | 1.3 | 
Cc1csc(C(=O)Nc2nccs2)c1 [Example 4, 4-Methyl-thiophene-2-carboxylic acid thiazol-2-ylamide] | 3.4 | 
CS(=O)(=O)c1cc(C(=O)Nc2nccs2)sc1Cl [Example 5, 5-Chloro-4-methanesulfonyl-thiophene-2-carboxylic acid thiazol-2-ylamide] | 1.9 | 5.9
O=C(Nc1nccs1)c1csc2ccccc12 [Example 6, Benzo[b]thiophene-3-carboxylic acid thiazol-2-ylamide] | 1.2 | 
O=C(Nc1nccs1)c1csc2c1CCCC2 [Example 7, 4,5,6,7-Tetrahydro-benzo[b]thiophene-3-carboxylic acid thiazol-2-ylamide] | 1.2 | 
CC1CCc2c(C(=O)Nc3nccs3)csc2C1 (centres unmarked) [Example 8, 6-Methyl-4,5,6,7-tetrahydro-benzo[b]thiophene-3-carboxylic acid thiazol-2-ylamide] | 1.6 | 
CCCc1cc(C(=O)Nc2nc(C)cs2)cs1 [Example 10, 5-Propyl-thiophene-3-carboxylic acid(4-methyl-thiazol-2-yl)-amide] | 5.2 | 9.3
CCCc1cc(C(=O)Nc2nc(CC(=O)OCC)cs2)cs1 [Example 11, {2-[(5-Propyl-thiophene-3-carbonyl)-amino]thiazol-4-yl}-acetic acid ethyl ester] | 4.9 | 15
CCCc1cc(C(=O)Nc2nc(C(=O)OCC)cs2)cs1 [Example 12, 2-[(5-Propyl-thiophene-3-carbonyl)-amino]-thiazole-4-carboxylic acid ethyl ester] | 2.6 | 5
CCCc1cc(C(=O)Nc2nc(C)c(C(=O)OCC)s2)cs1 [Example 13, 4-Methyl-2-[(5-propyl-thiophene-3-carbonyl)-amino]-thiazole-5-carboxylic acid ethyl ester] | 1.5 | 
CCCc1cc(C(=O)Nc2ncc[nH]2)cs1 [Example 14, 5-Propyl-thiophene-3-carboxylic acid(1H-imidazol-2-yl)-amide] | 2.1 | 
COCc1csc(C(=O)Nc2ccn(Cc3ccccn3)n2)c1 [Example 15, 4-Methoxymethyl-thiophene-2-carboxylic acid(1-pyridin-2-ylmethyl-1H-pyrazol-3-yl)-amide] | 3 | 
Cc1csc(C(=O)Nc2cc(C)n(Cc3ccccn3)n2)c1 [Example 16, 4-Methyl-thiophene-2-carboxylic acid(5-methyl-1-pyridin-2-ylmethyl-1H-pyrazol-3-yl)-amide] | 1.3 | 
COCc1csc(C(=O)Nc2cc(C)n(Cc3ccccn3)n2)c1 [Example 17, 4-Methoxymethyl-thiophene-2-carboxylic acid(5-methyl-1-pyridin-2-ylmethyl-1H-pyrazol-3-yl)-amide] | 1.8 | 
CS(=O)(=O)c1csc(C(=O)Nc2nccs2)c1Cl [Example 18, 3-Chloro-4-methanesulfonyl-thiophene-2-carboxylic acid thiazol-2-ylamide] | 1.2 | 
O=C(Nc1nccs1)c1cc(-c2ccc(Cl)cc2)cs1 [Example 19, 4-(4-Chloro-phenyl)-thiophene-2-carboxylic acid thiazol-2-ylamide] | 1.5 | 
O=C(Nc1nccs1)c1csc([N+](=O)[O-])c1 [Example 20, 5-Nitro-thiophene-3-carboxylic acid thiazol-2-ylamide] | 1.4 | 

SMILES | hGK fold activation at 30 μM | EC50 [µM]
CCCc1cc(C(=O)Nc2nc3ccccc3[nH]2)cs1 [Example 21, 5-Propyl-thiophene-3-carboxylic acid(1H-benzoimidazol-2-yl)-amide] | 2.4 | 
CCCc1cc(C(=O)Nc2nncs2)cs1 [Example 24, 5-Propyl-thiophene-3-carboxylic acid[1,3,4]thiadiazol-2-ylamide] | 2.4 | 
Cc1ccc(C(=O)Nc2nccs2)s1 [Example 26, 5-Methyl-thiophene-2-carboxylic acid thiazol-2-ylamide] | 1.5 | 
CCCc1cc(C(=O)Nc2ccc(F)cn2)cs1 [Example 27, 5-Propyl-thiophene-3-carboxylic acid(5-fluoro-pyridin-2-yl)-amide] | 2.1 | 
CCCc1cc(C(=O)Nc2ccon2)cs1 [Example 28, 5-Propyl-thiophene-3-carboxylic acid isoxazol-3-ylamide] | 2 | 
CCCc1cc(C(=O)Nc2ccn(C)n2)cs1 [Example 29, 5-Propyl-thiophene-3-carboxylic acid(1-methyl-1H-pyrazol-3-yl)-amide] | 5.5 | 
CCCc1cc(C(=O)Nc2cc(Cl)ccn2)cs1 [Example 31, 5-Propyl-thiophene-3-carboxylic acid(4-chloro-pyridin-2-yl)-amide] | 2.7 | 
CCCc1sc(C(=O)Nc2nccs2)cc1CC [Example 33, 4-Ethyl-5-propyl-thiophene-2-carboxylic acid thiazol-2-ylamide] | 9.4 | 
CCCc1cc(C(=O)Nc2ccncn2)cs1 [Example 36, 5-Propyl-thiophene-3-carboxylic acid pyrimidin-4-ylamide] | 2.7 | 
CCCc1cc(C(=O)Nc2ccn(Cc3ccccn3)n2)cs1 [Example 37, 5-Propyl-thiophene-3-carboxylic acid(1-pyridin-2-ylmethyl-1H-pyrazol-3-yl)-amide] | 3.6 | 
CCCc1cc(C(=O)Nc2cc[nH]n2)cs1 [Example 38, 5-Propyl-thiophene-3-carboxylic acid(1H-pyrazol-3-yl)-amide] | 2.7 | 
CCCc1cc(C(=O)Nc2cc(C)ccn2)cs1 [Example 39, 5-Propyl-thiophene-3-carboxylic acid(4-methyl-pyridin-2-yl)-amide] | 2.4 | 
CCOC(=O)Cn1ccc(NC(=O)c2cc(COC)cs2)n1 [Example 40, {3-[(4-Methoxymethyl-thiophene-2-carbonyl)-amino]-pyrazol-1-yl}-acetic acid ethyl ester] | 2.6 | 4.2
CCCc1cc(C(=O)Nc2ccccn2)cs1 [Example 41, 5-Propyl-thiophene-3-carboxylic acid pyridin-2-ylamide] | 2.5 | 
CCCc1cc(C(=O)Nc2nc(C(=O)O)cs2)cs1 [Example 42, 2-[(5-Propyl-thiophene-3-carbonyl)-amino]-thiazole-4-carboxylic acid] | 3.3 | 9
COCc1csc(C(=O)Nc2cc(C)n(CC(=O)O)n2)c1 [Example 43, {3-[(4-Methoxymethyl-thiophene-2-carbonyl)-amino]-5-methyl-pyrazol-1-yl}-acetic acid] | 1.2 | 
COCc1csc(C(=O)Nc2ccn(CC(=O)O)n2)c1 [Example 44, {3-[(4-Methoxymethyl-thiophene-2-carbonyl)-amino]-pyrazol-1-yl}-acetic acid] | 1.7 | 
